Source: patent EP1310511A2, “Oligopeptides for promoting hair growth” (Sumitomo Electric Industries, Ltd., priority 2001, dated 2003)
Where no end group is shown, it is not given here.

Test system: C57BL/6 mice
Test: Evaluation of hair growth promoting activity by in vivo method (transition from telogen to anagen on shaved back)
Settings: 0.2 ml of 0.15mg/ml solution in 50% ethanol/PBS on shaved back, once a day, 5 days in a week, until 38th day
Procedure: C3H and C57BL/6 mice are known to have sustained telogen for about 50 days from the 45th day after the birth to around the 95th day. Their hair cycle is easily judged based on the skin color changes, i.e., from pink in telogen to gray or black in anagen. A test for evaluating whether or not the administration the oligopeptides of the present invention promotes the transition from telogen to anagen was carried out using the mice. Seven weeks old (48 to 50-day old, female) C57BL/6 mice were purchased and hair of the back (about 3×2.5 cm^2) was carefully shaved with electric clippers for animals so as not to injure the skin, and the hair cycle was confirmed to be in telogen from the skin color. The oligopeptide solution prepared above was applied to five mice in each group, once a day and 5 days in a week in the amount of 0.2 ml until 38th day from the start of the test. The application was carried out by using a syringe without needle. […]
Plural persons (two persons) observed the mice twice a week by naked eye for evaluation, and gave a 6-graded score depending on a ratio of hair restoration area based on the hair shaved area. […] Hair growth scores were calculated as follows. […] The sum of the above scores in each group was determined as the hair growth score. […]

SIEQSCDQDE [oligopeptide comprising murine pep7 region]
hair restoration / hair growth promoting activity (hair growth score versus control group): has hair growth promoting activity
